This note sets out measurements from US20070003509A1, “Skin treatment composition” (priority 2005, published 2007).

The test system of data set [1] is fibrillin-rich microfibrils proximal to the dermal-epidermal junction (DEJ). In words: Patch-test protocol, immunohistochemistry of fibrillin-rich microfibrils in photoaged skin in vivo. Details: species or system human. Conditions: for Fibrillin expression proximal to the DEJ, Mean (degree of immunostaining): scale 0-4. The source says:
(§1) It was done by identification of Procollagen-I and Fibrillin upregulation and matrix metalloprotease-1 (MMP-1) down-regulation in Skin In Vivo. Experiments were done following topical Retinoic Acid (RA) treatment for comparative purposes and analysis of the effects of salicyloyl-phytosphingosine and phytosphingosine compared with retinoic acid with respect to the expression of dermal markers in vivo. See: Watson R E B, Craven N M, Kang S, Jones C J P, Kielty C M, Griffiths C E M. A short term screening protocol, using fibrillin-1 as a […] molecule for photoageing repair agents. J Invest Dermatol, 116: 672-678, 2001, for published methodology.
(§2) Five healthy, but clinically photoaged volunteers, were recruited (age range 54-71 years). Test substances were applied separately under standard 6 mm diameter Finn chambers to the extensor aspect of the forearm: these were vehicle base (15 μl/chamber), 0.2% PS-SLC (15 μl/chamber), 0.05% PS-SLC (15 μl/chamber), 0.2% phytosphingosine (15 μl/chamber) and 0.025% all-tans RA (Retin-A® cream, Janssen-Cilag Ltd., 15 μl/chamber). Formulations were applied to clean skin on days 1 and 4 of the assay. All-trans RA was applied to an untreated site on day 4. On day 8, Finn chambers were removed and 3 mm punch biopsies were obtained under 1% lignocaine anaesthesia from each of the test site. Biopsies were embedded in OCT compound (Tissue-Tek®, Miles, Ind., USA) and snap frozen in liquid nitrogen. Biopsy sites were sutured with 1×4/o ethilon and subjects instructed to return between 7-10 days for suture removal. Frozen sections were […] at a thickness of 10 μm (OTF cryostat, Bright Instruments Ltd.) and mounted onto gelatin-coated slides prior to histological analysis. A number of extracellular matrix (ECM) molecules known to be altered in photoaged skin were assayed by immunohistochemistry to detail the potential effects of the novel formulations. The primary marker of outcome was the distribution of fibrillin-rich microfibrils proximal to the dermal-epidermal junction (DEJ). Also assessed was the distribution of procollagen-1 within the dermis.
(§3) Matrix metalloprotease-1 (MMP-1) levels were also assessed. Whilst the fibrillin and procollagen-1 should increase for an antiaging active levels of MMP-1 should decrease for an antiaging active, i.e., increased synthesis of dermal structural proteins together with reduced levels of the proteases that degrade them. For each analysis, the marker was identified in each of three sections (i.e., 3 sections/treatment/volunteer). Sections were optimally fixed. Routinely, following hydration in tris-buffered saline (TBS; 100 mM Tris, 150 mM NaCl), sections were solublised by addition of 0.5% Triton-X100 (10 minutes). Following washing, endogenous peroxidase activity was abolished by incubation with an excess of hydrogen peroxide in methanol (30 minutes). Sections were blocked prior to application of primary antibody (overnight incubation @4° C.). Negative controls were concurrently incubated with either block alone or control serum. Following incubation, sections were stringently washed with TBS prior to application of an appropriate biotinylated secondary antibody. This was further conjugated to the enzyme horseradish peroxidase using a commercially available kit following the manufacturers instructions (ABC Elite System, Vector Laboratory, Peterborough UK). Antibody was localised using Vector SG® as chromogen (10 minute incubation)—washing in TBS quenched this reaction. Sections were counterstained using Nuclear Fast Red and finally dehydrated through serial alcohols, cleared and permanently mounted.
(§4) Sections were randomised, blinded and examined on a Nikon OPTIPHOT microscope (Tokyo, Japan). For assessment of ECM and cornified envelope components, the degree of immunostaining was assessed on a 5 point semi-quantitative scale where 0=no staining and 4=maximal staining. Four sections (including control) were examined per subject per site. […]

Data set [2] has as its system pro-collagen I in the papillary dermis. The data set is described as follows: Patch-test protocol, immunohistochemistry of pro-collagen I in photoaged skin in vivo. Details: species or system human. Conditions: for Pro-collagen I expression in the papillary dermis, Mean (degree of immunostaining): scale 0-4, N=5.
From the text: as §1, §2, §3, §4

Data set [3] deals with Matrix metalloprotease-1 (MMP-1). In words: Patch-test protocol, immunohistochemistry of MMP-1 in photoaged skin in vivo. Conditions: for MMP-1 expression, Mean (MMP-1 IHC): N=5. Details: species or system human.
From the text: as §1, §2, §3, §4

In data set [4] the test system is cellulite (thigh). In words: Clinical trial of anticellulite activity by topical application. The data set is classed as in vivo, human. The note with it: 0.2% formulation of Example 2, two times a day for 2 months, six female subjects. The source says:
Six female subjects were selected for a clinical trial of anticellulite activity of salicyloyl-phytoshingosine by topical application.
The scale ranged from 0 to 4, being 0=No cellulite; 1=Small bumps or depressions; 2=Striations and bumps; 3=Pronounced lumpiness of the skin and striations; 4=All of the above plus hard sub-surface nodules. All tested volunteers had cellulite with grades 1 and 2. The subjects were divided in 2 groups of 3 individuals
Group 1 was instructed to apply a formulation described in Example 2 containing 0.2% salicloyl-phytosphingosine on the right thigh and the vehicle formulation without salicyloyl-phytoshingosine in the left thigh Group 2 was instructed to apply the formulations vice versa. The subjects were taught to carry out the application two times a day, at morning and at night for a period of 2 months. Afterwards the cellulite condition was evaluated by comparison of the thigh diameter, the clinical degrading and the subjective improvement.

A short description of data set [5]: Patch-test protocol, erythema at the site of application. The data set is classed as in vivo, human. Conditions: occluded patch test on forearm, photoaged volunteers. How it is done:
as §2, with “The primary marker of outcome was the distribution of fibrillin-rich microfibrils proximal to the dermal-epidermal junction (DEJ).” left out

Where [6] appears, read: 0.2% topical under Finn chamber, applied days 1 and 4, biopsy day 8, N=5 photoaged volunteers.
[7] abbreviates: 0.05% topical under Finn chamber, applied days 1 and 4, biopsy day 8.
Setting [8] is: 0.2% topical under Finn chamber, applied days 1 and 4, biopsy day 8.
Where [9] appears, read: 0.2% topical occluded, vs vehicle.
Setting [10] is: topical occluded application, concentration not given.
[11] abbreviates: 0.025% (Retin-A cream), applied day 4, biopsy day 8.

Each structure is given as a SMILES string. Marks after values point to notes of the source that are not given here.

Consider `CCCCCCCCCCCCCC[C@@H](O)[C@@H](O)[C@H](CO)NC(=O)c1ccccc1O` [PS-SLC, salicyloyl-phytosphingosine], for which the “Fibrillin expression proximal to the DEJ, Mean (degree of immunostaining)” value (“Fibrillin expression proximal to the DEJ” for short) in data set [1] (0.05% topical under Finn chamber, applied days 1 and 4, biopsy day 8, N=5) was 1.7778**; in data set [1] (setting [6]), 2.267*. The figures for the “Pro-collagen I expression in the papillary dermis, Mean (degree of immunostaining)” value (shortened to “Pro-collagen I expression”) in data set [2] (setting [7]) and in data set [2] (setting [8]) were 2.2472 and 2.7790*, respectively. The “MMP-1 expression, Mean (MMP-1 IHC)” value in data set [3] (setting [7]) was 18.40*; in data set [3] (setting [8]), 22.72*. Moreover, the “Clinical grading (cellulite) reduction in comparison with the vehicle treated thigh” value in data set [4] came out at 27%. For the same compound, the “Subjective improvement increase in comparison with the vehicle treated thigh” value in data set [4] came out at 34%. For the same compound, in data set [4], the “Thigh diameter reduction in comparison with the vehicle treated thigh” value is on record as 4%.
On to `CCCCCCCCCCCCCC[C@@H](O)[C@@H](O)[C@@H](N)CO` [PS, phytosphingosine], for which, in data set [1] (setting [9]), the “Fibrillin-1 deposition proximal to the DEJ (in words)” value is recorded as “significant induction of fibrillin expression”. Besides, the “Fibrillin expression proximal to the DEJ” value in data set [1] (setting [6]) is recorded as 2.0000**. In data set [1] (setting [10]), the “Fibrillin-rich microfibrillar network proximal to the DEJ of photoaged skin (study summary, in words)” value is on record as “restores”. Also, the “pCI content in the papillary dermis (in words)” value in data set [2] (setting [9]) is reported as “significantly increased”. Further, in data set [2] (setting [8]), the “Pro-collagen I expression” value is reported as 2.5556**. Besides, the “Effects on procollagen I in the papillary dermis (study summary, in words)” value in data set [2] (setting [10]) was “beneficial effects”. The “MMP-1 levels (in words)” value in data set [3] (setting [9]) is reported as “no effect”. In data set [3] (setting [8]), the “MMP-1 expression, Mean (MMP-1 IHC)” value was 33.23.
Regarding `CC1=C(/C=C/C(C)=C/C=C/C(C)=C/C(=O)O)C(C)(C)CCC1` [RA, retinoic acid], the “Fibrillin expression proximal to the DEJ” value in data set [1] (0.025% (Retin-A cream) under Finn chamber, applied day 4, biopsy day 8, N=5) is 2.8625**. Besides, in data set [2] (setting [11]), the “Pro-collagen I expression” value is given as 2.2667. Also, the “MMP-1 expression, Mean (MMP-1 IHC)” value in data set [3] (setting [11]) was determined as 36.82. In addition, in data set [3] (0.025% all-trans RA, 4 day occluded application), the “Expression of MMP-1 (in words)” value is “no effect”. Moreover, in data set [5], the “Erythema at the site of application” value is recorded as “marked erythema”.
